From patent US7763615B2, “Ecteinascidin analogs for use as antitumour agents” (priority 2001, dated 2010) come the findings set out here.

SMILES strings stand for the structures.

In one series the test system is IGROV. Description: cells. It is filed as cell-based. Particulars: Homo sapiens, 48 h. A digest of the protocol:
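Human tumour lines grown in RPMI 1640 with 10% FBS were seeded at 5×10^3 cells per well, left 18 hours to attach, then exposed to samples (10 to 10^−8 μg/ml) for 48 hours. Growth was quantified by sulphorhodamine B staining of TCA-fixed cells, with absorbance read at 490 nm.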

Series [1] has as its system L8, normal rat skeletal muscle cells. Particulars: 24 h.
For series [2], the system named is FDC-P1, normal mouse myelogeous stem cells. Particulars: 24 h.

As a reminder, the GI50 is the concentration at which growth is held to half of that of the control. As for `COc1c(C)cc2c(c1O)[C@@H]1C3[C@@H]4SC[C@]5(NCCc6c5[nH]c5c(C)cccc65)C(=O)COC[C@@H](c5c6c(c(C)c(OC(C)=O)c54)OCO6)N3[C@@H](O)[C@H](C2)N1C` (some centres unmarked) [Compound 36], in the series with IGROV (48 hours exposure, SRB), it took 3.72 nM to inhibit growth by half (GI50) and the IC (TGI) was determined as 7.21 nM. Besides, the CC50 with IGROV (read-out: LC50, IGROV, 48 hours exposure, SRB) stood at 27.1 nM. The compound also had a Skeletal in series [1] of 2.71E−08. In addition, the Myelo in series [2] came out at 2.05E−07.
